The source made the active and inactive calls.
Assays:
[1] = HEK293 cell cytotoxicity, dose response, cytotoxicity control, plate reader, cherry-picked samples (AID 743446); type: functional, cell-based
[2] = MC4R antagonists, dose response, counter-screen for LGR2 antagonist project, cell-based, plate reader, cherry pick (AID 743444); type: functional;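 also: transfected HEK 293 cells stimulated with alpha-MSH peptide; potency of inhibitors of the alpha-MSH evoked signal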
Paired box protein Pax-8 = Paired box protein Pax-8 (Homo sapiens, UniProt Q06710); assay: inhibitors of PAX8-driven TPO luciferase reporter, dose response, RMG-I cells, cherry-pick (AID 687027); type: functional, cell-based;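 also: luciferase reporter driven by Pax8 target thyroperoxidase promoter measured by SteadyGlo luminescence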
Sequence of Paired box protein Pax-8 (Q06710 whole entry): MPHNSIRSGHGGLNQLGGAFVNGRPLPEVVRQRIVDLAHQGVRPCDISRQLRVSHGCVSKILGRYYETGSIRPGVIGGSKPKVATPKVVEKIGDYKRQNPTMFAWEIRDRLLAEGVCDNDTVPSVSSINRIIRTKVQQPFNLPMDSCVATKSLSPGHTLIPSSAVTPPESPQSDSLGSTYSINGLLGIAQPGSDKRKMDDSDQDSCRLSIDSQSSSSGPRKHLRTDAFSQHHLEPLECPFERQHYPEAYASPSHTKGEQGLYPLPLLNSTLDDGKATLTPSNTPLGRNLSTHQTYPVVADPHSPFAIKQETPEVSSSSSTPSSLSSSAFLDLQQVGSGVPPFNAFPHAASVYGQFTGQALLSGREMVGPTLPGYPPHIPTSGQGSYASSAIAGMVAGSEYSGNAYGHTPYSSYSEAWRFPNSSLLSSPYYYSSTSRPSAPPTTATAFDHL

[3] = target: T1, Heat shock factor protein 1 (Mus musculus, UniProt P38532); assay: inhibition of MG132-induced HSE-luciferase signal, confirmation, cell-based, NIH3T3, luminescence, dose retest (AID 2382); type: functional;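 also: NIH3T3 fibroblasts with HSF1-driven luciferase reporter stressed by proteasome inhibitor MG132; luminescence from HSF1-driven luciferase expression after 8 hours of MG132 stress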
T1 sequence (P38532 whole entry): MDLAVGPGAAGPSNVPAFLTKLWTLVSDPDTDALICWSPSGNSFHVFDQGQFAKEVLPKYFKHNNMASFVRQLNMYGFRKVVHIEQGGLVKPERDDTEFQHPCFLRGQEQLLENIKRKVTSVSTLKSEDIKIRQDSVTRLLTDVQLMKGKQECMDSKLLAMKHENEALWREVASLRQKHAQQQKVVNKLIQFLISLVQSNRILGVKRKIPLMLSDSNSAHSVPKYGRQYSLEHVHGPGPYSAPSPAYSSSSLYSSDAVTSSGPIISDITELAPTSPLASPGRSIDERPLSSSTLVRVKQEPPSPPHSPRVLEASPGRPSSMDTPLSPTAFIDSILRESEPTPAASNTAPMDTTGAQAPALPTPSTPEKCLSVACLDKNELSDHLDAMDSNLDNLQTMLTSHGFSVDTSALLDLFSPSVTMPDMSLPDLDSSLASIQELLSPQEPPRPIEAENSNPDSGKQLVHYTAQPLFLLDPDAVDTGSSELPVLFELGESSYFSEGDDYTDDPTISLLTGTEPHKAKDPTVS

[4] = Luminescence-based counterscreen assay for KLF5 inhibitors: dose response cell-based high throughput screening assay to identify cytotoxic compounds using the IEC-6 intestinal epithelial cell line. [Related pubchem assays: 1700 (Primary screen.), 1834 (Confirmation screen.), 1858 (Summary AID.), 1905 (Counterscreen.)]; type: functional
[5] = ZM109 Env clade C HIV-1 fusion inhibitors, dose response, HeLa effector, CEM target cells, luciferase, cherry-pick (AID 652058); type: functional, cell-based
[6] = inhibitors of clade B AD8 Env fusion, dose response, cell-based, cherry-pick (AID 652062); type: functional;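 also: luciferase signal from cell-cell fusion driven by HIV-1 clade B AD8 Env; potency is for inhibitors of fusion seen as a drop in luminescence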
[7] = inhibitors of SNCA 5'UTR-driven reporter translation, confirmation, H4 neuroglioma cells, luminescence (AID 1988); type: functional, cell-based
[8] = Luminescence Cell-Based Dose Response HTS to Identify Inhibitors of 5'UTR Stem-Loop Driven Prion Protein mRNA Translation in H4 Neuroglioblastoma Cells. [Related pubchem assays: 1827 (Project Summary), 1813 (Primary HTS)]; type: functional
[9] = A549 cell cytotoxicity, dose response, cytotoxicity control, plate reader, cherry-pick, antagonist series (AID 743412); type: functional, cell-based
[10] = luciferase reporter signal reduction – luminescence, H4-C neuroglioblastoma cells, dose response (AID 2458); type: functional, cell-based;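 also: H4 neuroglioblastoma cells stably carrying a luciferase reporter gene fusion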
[11] = LGR2 antagonists, dose response, cell-based, HEK293, CRE-luciferase reporter, cherry pick, set 2 (AID 743343); type: functional;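 also: transfected cells were stimulated with diluted bursicon conditioned medium after compound addition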
[12] = inhibitors of firefly luciferase expression or activity, dose response, H4 neuroglioma cells, luminescence (AID 1990); type: functional, cell-based
[13] = target: FAD-linked sulfhydryl oxidase ALR (Homo sapiens, UniProt P55789); assay: inhibitors of human ALR sulfhydryl oxidase, dose response, biochemical, H2O2 detection, luminescence, cherry-pick (AID 493248)
Sequence of FAD-linked sulfhydryl oxidase ALR (P55789 whole entry): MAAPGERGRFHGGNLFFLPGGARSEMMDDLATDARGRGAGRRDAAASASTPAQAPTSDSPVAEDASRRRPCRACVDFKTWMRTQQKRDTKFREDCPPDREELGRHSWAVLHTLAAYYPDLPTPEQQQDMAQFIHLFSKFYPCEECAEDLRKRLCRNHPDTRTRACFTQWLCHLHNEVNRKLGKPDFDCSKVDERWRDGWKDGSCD

cells = type: functional, cell-based
[14] = off-target signal loss in HeLa-CEM21 co-culture – HeLa F-luc CTL cells, cherry-picked, counter-screen for HIV-1 Env fusion inhibitor project, dose response (AID 652040); type: functional, cell-based;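 also: potency for signal decrease marking cytotoxic or nonspecific inhibition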
[15] = inhibitors of HIV Env-driven cell fusion, dose response, cherry-pick (AID 652057); type: functional, cell-based
[16] = inhibitors of SNCA 5'UTR-driven translation, confirmation, luminescence, H4 neuroglioblastoma cells, dose confirmation (AID 2454); type: functional, cell-based;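 also: H4 neuroglioblastoma cells carrying an alpha-synuclein 5'UTR luciferase reporter; potency for inhibition of the luciferase signal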
Hexokinase HKDC1 = Hexokinase HKDC1 (Homo sapiens, UniProt Q2TB90); assay: HKDC1 hexokinase inhibitors, dose response, biochemical, W721R variant (AID 504729); type: functional
Sequence of Hexokinase HKDC1 (Q2TB90 whole entry): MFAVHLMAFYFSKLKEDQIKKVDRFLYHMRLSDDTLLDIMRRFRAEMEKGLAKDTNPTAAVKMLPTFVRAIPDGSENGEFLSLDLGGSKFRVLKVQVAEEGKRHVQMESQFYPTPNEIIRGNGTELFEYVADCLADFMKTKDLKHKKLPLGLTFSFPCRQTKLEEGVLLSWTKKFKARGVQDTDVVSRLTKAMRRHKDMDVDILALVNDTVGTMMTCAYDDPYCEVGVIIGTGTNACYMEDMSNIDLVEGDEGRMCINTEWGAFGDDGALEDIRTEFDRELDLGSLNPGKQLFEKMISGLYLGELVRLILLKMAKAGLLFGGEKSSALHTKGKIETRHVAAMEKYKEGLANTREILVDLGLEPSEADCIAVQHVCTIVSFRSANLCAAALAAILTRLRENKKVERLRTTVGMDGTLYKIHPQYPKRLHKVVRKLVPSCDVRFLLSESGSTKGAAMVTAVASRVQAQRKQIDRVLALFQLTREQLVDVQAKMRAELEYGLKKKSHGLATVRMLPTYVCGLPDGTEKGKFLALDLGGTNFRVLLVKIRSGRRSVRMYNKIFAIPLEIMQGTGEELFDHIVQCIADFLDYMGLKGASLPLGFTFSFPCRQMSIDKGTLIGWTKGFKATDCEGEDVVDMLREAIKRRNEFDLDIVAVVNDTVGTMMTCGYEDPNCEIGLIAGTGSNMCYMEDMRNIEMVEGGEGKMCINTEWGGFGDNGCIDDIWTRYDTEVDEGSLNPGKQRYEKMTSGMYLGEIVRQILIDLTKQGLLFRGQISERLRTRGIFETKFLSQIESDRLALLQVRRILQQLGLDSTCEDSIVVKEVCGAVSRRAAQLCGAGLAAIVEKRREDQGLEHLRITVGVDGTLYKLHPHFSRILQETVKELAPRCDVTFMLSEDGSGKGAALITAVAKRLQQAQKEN

[17] = target: DNA (cytosine-5)-methyltransferase 1 (Homo sapiens, UniProt P26358); assay: DNMT1 methyltransferase inhibitors, confirmation, biochemical, fluorescent molecular beacon (AID 602386); type: functional
Cytochrome P450 3A4 = Cytochrome P450 3A4 (Homo sapiens, UniProt P08684); conditions: Potency;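 also: confirmatory qHTS run detecting inhibitors and substrates of CYP3A4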
Sequence of Cytochrome P450 3A4 (P08684 whole entry): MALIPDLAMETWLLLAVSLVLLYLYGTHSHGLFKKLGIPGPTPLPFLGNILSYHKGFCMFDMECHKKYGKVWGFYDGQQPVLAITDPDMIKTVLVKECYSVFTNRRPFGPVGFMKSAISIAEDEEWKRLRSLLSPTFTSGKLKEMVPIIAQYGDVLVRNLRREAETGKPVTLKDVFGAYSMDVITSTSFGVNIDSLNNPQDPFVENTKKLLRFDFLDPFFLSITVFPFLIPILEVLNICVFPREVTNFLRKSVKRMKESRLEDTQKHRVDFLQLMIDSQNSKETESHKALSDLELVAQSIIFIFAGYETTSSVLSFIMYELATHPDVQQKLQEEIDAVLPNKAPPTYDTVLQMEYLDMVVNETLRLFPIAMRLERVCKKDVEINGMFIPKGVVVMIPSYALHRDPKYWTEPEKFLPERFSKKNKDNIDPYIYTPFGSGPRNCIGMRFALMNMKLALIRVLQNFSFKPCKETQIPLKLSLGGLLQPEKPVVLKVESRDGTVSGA

Cytochrome P450 2C9 = Cytochrome P450 2C9 (Homo sapiens, UniProt P11712); conditions: Potency
Sequence of Cytochrome P450 2C9 (P11712 whole entry): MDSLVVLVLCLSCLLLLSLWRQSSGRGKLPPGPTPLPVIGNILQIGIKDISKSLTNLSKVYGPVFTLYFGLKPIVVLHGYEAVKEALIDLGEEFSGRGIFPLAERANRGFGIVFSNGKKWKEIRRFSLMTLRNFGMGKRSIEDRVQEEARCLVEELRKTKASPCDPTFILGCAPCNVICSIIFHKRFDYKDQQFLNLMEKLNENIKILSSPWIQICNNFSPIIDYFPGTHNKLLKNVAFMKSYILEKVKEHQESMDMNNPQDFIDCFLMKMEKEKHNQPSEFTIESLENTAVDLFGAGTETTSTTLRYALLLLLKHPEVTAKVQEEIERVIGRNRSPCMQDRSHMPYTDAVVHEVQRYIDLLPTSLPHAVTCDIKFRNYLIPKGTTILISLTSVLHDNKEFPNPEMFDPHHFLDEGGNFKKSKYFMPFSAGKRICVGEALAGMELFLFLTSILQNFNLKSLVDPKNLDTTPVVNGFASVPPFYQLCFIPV

[18] = target: DNA dC->dU-editing enzyme APOBEC-3G (Homo sapiens, UniProt Q9HC16); assay: Dose Response confirmation of small molecule APOBEC3G DNA Deaminase Inhibitors via a fluorescence-based single-stranded DNA deaminase assay. [Related pubchem assays (depositor defined):AID493012, AID493028]; type: functional
Sequence of DNA dC->dU-editing enzyme APOBEC-3G (Q9HC16 whole entry): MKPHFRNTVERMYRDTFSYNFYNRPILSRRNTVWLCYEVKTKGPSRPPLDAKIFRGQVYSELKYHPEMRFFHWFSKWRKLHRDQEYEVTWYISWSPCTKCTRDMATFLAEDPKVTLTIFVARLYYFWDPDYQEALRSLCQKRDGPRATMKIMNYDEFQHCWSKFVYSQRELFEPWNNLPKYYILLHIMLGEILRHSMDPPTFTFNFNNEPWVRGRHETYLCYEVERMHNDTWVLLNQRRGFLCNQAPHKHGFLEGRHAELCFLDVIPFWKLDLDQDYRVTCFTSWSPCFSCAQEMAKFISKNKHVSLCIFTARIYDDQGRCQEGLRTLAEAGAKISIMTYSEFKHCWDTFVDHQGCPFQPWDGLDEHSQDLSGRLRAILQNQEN

[19] = target: T2, Polyadenylate-binding protein 1 (Homo sapiens, UniProt P11940); assay: PABP1 MLLE–PAM2 binding inhibitor potency, dose response, biochemical, fluorescence polarization, FITC-PAM2 peptide (AID 602259); type: functional; conditions: read-out: IC50_Mean
T2 sequence (P11940 whole entry): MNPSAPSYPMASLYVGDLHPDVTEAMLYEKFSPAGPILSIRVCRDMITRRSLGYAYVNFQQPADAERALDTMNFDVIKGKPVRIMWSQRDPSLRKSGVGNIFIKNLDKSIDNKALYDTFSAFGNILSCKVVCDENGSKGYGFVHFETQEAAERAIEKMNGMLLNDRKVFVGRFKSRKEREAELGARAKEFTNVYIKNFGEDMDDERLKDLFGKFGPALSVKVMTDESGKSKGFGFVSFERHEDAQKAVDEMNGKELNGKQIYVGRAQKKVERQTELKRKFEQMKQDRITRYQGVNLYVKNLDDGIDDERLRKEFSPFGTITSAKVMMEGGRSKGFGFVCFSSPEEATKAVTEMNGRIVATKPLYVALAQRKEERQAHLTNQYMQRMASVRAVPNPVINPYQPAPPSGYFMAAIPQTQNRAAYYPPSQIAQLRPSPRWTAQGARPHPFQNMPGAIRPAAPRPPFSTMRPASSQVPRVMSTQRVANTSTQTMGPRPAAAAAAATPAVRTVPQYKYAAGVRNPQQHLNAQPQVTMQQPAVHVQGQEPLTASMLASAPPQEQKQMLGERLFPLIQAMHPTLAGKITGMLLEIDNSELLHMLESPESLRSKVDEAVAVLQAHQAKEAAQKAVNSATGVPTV

[20] = target: T2, Polyadenylate-binding protein 1; assay: PABP1 MLLE–PAM2 interaction inhibitors, dose response, miRNA deadenylation inhibitor project, biochemical, fluorescence polarization, Cy5-PAM2 peptide, secondary (AID 602260); type: functional; conditions: read-out: IC50_Mean

O=C(O)c1cccc(COc2ccc3c(c2)CCC3)c1
AC50 [1]: > 52000 nM (inactive)
AC50 [2]: 383 nM (active)
AC50 (Paired box protein Pax-8): 3790 nM (active)
EC50 [3]: 376 nM (inconclusive)
IC50 [4]: > 39800 nM (not active)
AC50 [5]: 5090 nM (active)
AC50 [6]: 1470 nM (active)
EC50 [7]: < 100 nM (active)
EC50 [8]: < 100 nM (active)
AC50 [9]: > 52000 nM (inactive)
EC50 [10]: 233 nM (active)
AC50 [11]: 326 nM (active)
EC50 [12]: 212 nM (active)
AC50 [13]: 1370 nM (active)
EC50 (cells): 538 nM (active)
AC50 [14]: 1680 nM (active)
AC50 [15]: 684 nM (active)
EC50 [16]: 197 nM (active)

Cc1ccc(N2C(=O)NC(=O)/C(=C\c3cc(C)n(-c4sc5c(c4C#N)CCCC5)c3C)C2=O)cc1
IC50 (Hexokinase HKDC1): 14100 nM (active)
IC50 [17]: 11100 nM (active)

CC1CCC2C(=O)N3C(CCC(C)C3c3ccccc3Br)C(=O)N2C1c1ccc(C#CCN(C)C)cc1 (stereo unspecified)
AC50 (Cytochrome P450 3A4): 3160 nM (inconclusive)
AC50 (Cytochrome P450 2C9): 3980 nM (inconclusive)

CC(C)[C@@H](CC(=O)N[C@@H]1CCCC[C@H]1C(=O)N[C@H](CC(=O)N[C@@H](CCC(=O)O)CC(=O)O)Cc1c[nH]c2ccccc12)NC(=O)C[C@H](CO)NC(=O)[C@@H]1CNCC[C@H]1N
AC50 (Cytochrome P450 2C9): 31600 nM (inconclusive)

CCOC(=O)c1ccc(NC(=O)CC2Sc3ncnn3C2=O)cc1 (stereo unspecified)
IC50 [18]: 61800 nM (active)
IC50 [19]: > 66000 nM (inactive)
IC50 [20]: > 66000 nM (inactive)

— ChEMBL document CHEMBL1201862, “PubChem BioAssay data set” (2004)
